According to article PMC6019134, “1,2,6-Thiadiazinones as Novel Narrow Spectrum Calcium/Calmodulin-Dependent Protein Kinase Kinase 2 (CaMKK2) Inhibitors” (Molecules : A Journal of Synthetic Chemistry and Natural …, 2018):
“Also recorded” adds a separate entry of the source. Like-named read-outs stand apart in the source and are kept apart here.

Assays:
[1] = target: T1, CAMKK2 kinase domain (132–470) (Homo sapiens, UniProt Q96RR4); assay: CaMKK2B TR-FRET tracer displacement assay; type: binding; details: CaMKK2, displacement of tracer 236, average of 2 experiments
T1 construct: CAMKK2 kinase domain (132–470) was cloned in a pNIC-Bio2 vector; 10xHis tag followed by a TEV site (N, cleaved yes); made in house; host or cells: E. coli BL21(DE3)-R3-BirA
T1 sequence (Q96RR4 132-470): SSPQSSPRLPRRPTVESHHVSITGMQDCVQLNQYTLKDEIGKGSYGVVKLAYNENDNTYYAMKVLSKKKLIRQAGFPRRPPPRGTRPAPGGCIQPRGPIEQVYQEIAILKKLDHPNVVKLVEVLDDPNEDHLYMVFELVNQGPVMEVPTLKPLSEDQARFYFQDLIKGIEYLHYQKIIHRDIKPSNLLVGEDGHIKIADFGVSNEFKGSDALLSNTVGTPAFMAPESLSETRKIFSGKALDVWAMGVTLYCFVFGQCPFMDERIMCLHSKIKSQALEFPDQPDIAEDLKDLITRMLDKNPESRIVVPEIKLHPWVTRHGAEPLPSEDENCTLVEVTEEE
Description: To more accurately determine the relative changes in potency of the TDZ analogues and to enable measurement of accurate IC50^’s, we developed a Time-Resolved Fluorescence Resonance Energy Transfer (TR-FRET) assay. The TR-FRET tracer displacement assays were generated using a protocol derived from the Lanthascreen binding assays (ThermoFisher Scientific, Waltham, MA, USA) [21].

DYRK2A = target: T2, DYRK2A (Homo sapiens, UniProt Q92630); assay: DSF thermal shift, kinase panel; type: binding; details: 10 μM compound
T2 construct: purchased in-house (home-made panel, SGC-style construct names)
T2 sequence (Q92630 1-601): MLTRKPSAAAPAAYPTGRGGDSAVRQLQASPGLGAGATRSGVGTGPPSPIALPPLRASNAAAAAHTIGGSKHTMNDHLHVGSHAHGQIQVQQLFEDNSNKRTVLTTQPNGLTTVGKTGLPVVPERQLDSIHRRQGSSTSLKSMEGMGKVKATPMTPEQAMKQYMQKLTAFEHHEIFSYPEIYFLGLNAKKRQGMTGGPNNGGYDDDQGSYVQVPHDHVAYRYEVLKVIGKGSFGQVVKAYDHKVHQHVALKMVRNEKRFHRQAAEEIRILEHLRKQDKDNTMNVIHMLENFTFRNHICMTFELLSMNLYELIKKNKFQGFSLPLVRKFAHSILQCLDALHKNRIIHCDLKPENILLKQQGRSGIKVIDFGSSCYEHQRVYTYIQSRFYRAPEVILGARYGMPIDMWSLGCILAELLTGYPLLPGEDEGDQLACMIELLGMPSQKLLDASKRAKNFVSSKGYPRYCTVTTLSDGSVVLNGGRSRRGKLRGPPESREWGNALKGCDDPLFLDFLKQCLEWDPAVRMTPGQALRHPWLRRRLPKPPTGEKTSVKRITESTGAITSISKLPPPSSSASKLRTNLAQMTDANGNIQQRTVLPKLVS
Outline: (§1)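 Kinase domains produced in E. coli were purified by Ni-chelate, TEV cleavage and gel filtration. Each was mixed at 1 µM with dye and 10 µM test compound in pH 7.5 phosphate buffer, then melted from 25 to 95 °C; thermal shifts were calculated against DMSO-only protein.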

CSNK2A1 = target: T3, CSNK2A1 (Homo sapiens, UniProt P68400); assay: DSF thermal shift, kinase panel; type: binding; details: read-out: ΔTm
T3 construct: purchased in-house (home-made panel, SGC-style construct names)
T3 sequence (P68400 whole entry): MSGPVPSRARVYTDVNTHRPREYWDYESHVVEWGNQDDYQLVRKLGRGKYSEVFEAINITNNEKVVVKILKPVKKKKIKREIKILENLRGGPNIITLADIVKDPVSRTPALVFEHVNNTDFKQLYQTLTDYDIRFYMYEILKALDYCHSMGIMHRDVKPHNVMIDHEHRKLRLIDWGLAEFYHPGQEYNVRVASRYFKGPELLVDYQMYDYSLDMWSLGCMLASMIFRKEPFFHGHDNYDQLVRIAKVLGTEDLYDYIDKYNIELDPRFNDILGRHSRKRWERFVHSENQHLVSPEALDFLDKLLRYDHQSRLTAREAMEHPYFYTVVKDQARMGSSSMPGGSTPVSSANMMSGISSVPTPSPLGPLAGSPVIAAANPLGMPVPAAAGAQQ
Outline: as §1

CDKL1 = target: T4, CDKL1 (Homo sapiens, UniProt Q00532); assay: DSF thermal shift, kinase panel; type: binding; details: 10 μM compound
T4 construct: purchased in-house (home-made panel, SGC-style construct names)
T4 sequence (Q00532 whole entry): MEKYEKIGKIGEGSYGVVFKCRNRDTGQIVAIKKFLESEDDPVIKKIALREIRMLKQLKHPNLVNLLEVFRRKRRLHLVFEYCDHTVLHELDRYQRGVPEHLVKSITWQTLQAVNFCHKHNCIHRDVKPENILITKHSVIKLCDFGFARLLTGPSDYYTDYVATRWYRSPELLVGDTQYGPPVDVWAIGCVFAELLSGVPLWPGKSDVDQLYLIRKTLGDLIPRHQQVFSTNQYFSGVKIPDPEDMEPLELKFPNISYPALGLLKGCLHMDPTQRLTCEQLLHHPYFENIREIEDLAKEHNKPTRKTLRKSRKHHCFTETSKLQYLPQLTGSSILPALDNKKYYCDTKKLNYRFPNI
Outline: as §1

BRAFA = target: T5, BRAFA (Homo sapiens, UniProt P15056); assay: DSF thermal shift, kinase panel; type: binding; details: 10 μM compound
T5 construct: purchased in-house (home-made panel, SGC-style construct names)
T5 sequence (P15056 whole entry): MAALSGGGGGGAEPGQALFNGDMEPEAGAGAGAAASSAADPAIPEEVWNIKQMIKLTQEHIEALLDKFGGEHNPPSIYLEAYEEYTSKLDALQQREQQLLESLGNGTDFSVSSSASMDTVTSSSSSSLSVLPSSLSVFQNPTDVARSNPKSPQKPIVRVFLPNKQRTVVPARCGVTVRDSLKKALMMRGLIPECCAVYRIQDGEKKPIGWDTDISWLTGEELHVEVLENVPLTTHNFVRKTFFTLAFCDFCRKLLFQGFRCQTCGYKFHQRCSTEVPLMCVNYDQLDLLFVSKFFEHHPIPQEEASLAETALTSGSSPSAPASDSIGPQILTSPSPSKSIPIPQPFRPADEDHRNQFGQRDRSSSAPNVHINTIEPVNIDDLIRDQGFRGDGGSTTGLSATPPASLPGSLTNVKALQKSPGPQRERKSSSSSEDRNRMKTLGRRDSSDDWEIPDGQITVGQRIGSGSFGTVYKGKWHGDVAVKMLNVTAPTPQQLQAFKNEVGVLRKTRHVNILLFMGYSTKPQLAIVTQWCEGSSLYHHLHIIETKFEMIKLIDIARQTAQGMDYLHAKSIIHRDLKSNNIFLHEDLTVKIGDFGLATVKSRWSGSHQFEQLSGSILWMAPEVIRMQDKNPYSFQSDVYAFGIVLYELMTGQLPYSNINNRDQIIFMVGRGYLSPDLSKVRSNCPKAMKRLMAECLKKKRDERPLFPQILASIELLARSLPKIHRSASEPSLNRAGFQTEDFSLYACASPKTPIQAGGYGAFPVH
Outline: as §1

CDC42BPA = target: T6, CDC42BPA (Homo sapiens, UniProt Q5VT25); assay: DSF thermal shift, kinase panel; type: binding; details: 10 μM compound
T6 construct: purchased in-house (home-made panel, SGC-style construct names)
T6 sequence (Q5VT25 whole entry): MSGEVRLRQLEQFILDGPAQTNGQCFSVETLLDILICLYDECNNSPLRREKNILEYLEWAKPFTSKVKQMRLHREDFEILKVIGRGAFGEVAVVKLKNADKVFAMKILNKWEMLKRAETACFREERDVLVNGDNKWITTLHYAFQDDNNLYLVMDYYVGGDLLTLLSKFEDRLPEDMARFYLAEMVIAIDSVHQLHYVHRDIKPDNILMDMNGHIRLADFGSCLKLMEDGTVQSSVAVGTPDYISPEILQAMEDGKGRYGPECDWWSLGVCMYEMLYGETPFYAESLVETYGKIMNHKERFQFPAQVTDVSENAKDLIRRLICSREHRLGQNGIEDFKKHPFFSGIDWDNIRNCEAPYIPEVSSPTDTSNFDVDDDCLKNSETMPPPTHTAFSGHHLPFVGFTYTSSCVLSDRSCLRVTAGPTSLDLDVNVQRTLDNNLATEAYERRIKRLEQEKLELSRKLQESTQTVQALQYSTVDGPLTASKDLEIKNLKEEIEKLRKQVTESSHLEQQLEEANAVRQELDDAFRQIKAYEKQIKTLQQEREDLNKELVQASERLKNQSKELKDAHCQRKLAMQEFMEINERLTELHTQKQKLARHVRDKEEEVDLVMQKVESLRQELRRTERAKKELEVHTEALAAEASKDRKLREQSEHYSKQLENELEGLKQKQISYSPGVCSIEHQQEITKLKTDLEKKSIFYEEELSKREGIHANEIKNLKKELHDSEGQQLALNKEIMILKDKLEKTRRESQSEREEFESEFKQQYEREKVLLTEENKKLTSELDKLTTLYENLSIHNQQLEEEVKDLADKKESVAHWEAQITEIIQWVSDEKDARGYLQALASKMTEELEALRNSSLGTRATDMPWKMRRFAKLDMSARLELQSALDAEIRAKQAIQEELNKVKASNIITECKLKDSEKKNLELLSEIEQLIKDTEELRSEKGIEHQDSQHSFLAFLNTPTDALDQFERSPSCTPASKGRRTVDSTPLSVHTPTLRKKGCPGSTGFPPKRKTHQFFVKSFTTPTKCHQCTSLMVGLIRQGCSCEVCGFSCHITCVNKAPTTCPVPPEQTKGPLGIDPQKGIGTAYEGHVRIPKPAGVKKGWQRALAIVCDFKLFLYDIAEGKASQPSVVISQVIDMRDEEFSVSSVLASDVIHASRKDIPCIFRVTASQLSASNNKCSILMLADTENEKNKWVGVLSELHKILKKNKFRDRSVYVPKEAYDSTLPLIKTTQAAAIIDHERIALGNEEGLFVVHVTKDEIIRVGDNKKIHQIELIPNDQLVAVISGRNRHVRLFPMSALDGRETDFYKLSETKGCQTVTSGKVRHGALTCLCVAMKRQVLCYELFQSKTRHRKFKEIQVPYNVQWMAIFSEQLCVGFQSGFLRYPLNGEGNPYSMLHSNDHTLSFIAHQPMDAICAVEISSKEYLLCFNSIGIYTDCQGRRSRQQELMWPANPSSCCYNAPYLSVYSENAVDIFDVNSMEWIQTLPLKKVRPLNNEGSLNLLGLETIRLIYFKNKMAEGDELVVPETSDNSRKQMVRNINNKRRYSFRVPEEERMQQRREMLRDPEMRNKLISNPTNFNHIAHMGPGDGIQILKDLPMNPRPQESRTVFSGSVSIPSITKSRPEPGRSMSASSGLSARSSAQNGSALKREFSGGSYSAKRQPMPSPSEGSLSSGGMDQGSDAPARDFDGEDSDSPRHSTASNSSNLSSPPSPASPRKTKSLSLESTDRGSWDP
Outline: as §1

PHKG2A = target: T7, PHKG2A (Homo sapiens, UniProt P15735); assay: DSF thermal shift, kinase panel; type: binding; details: 10 μM compound
T7 construct: purchased in-house (home-made panel, SGC-style construct names)
T7 sequence (P15735 1-406): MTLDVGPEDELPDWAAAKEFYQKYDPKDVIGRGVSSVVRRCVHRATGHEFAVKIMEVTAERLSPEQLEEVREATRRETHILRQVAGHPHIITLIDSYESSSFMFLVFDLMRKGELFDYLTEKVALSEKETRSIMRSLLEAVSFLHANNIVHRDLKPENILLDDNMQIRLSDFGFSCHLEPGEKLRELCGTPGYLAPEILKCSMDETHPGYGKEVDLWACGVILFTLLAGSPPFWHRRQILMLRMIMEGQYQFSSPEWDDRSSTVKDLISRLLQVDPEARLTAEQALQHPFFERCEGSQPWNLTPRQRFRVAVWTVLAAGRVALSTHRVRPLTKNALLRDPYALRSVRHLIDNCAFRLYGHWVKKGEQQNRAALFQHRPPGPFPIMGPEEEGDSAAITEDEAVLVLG
Outline: as §1

[2] = tested on: panel of 46 protein kinases; assay: DSF kinome selectivity panel, hits over 2 °C; type: binding; details: 10 μM compound, average of 4 experiments; for Kinases Hit DSF > 2 °C: names of the kinases hit, 46 kinases; for Number of Kinases Hit DSF > 2 °C: of 46 kinases
Description: The corresponding dianilino-TDZs (1–5) were tested on a panel of 46 protein kinases representing the major kinome branches at a concentration of 10 μM using a Differential Scanning Fluorimetry (DSF). Only analogues 1–3 induced a significant (>2 °C) thermal shift when incubated with a subset of the proteins (Table 1).
Kinase selectivity assay—A home-made kinase panel was generated for the following enzymes: AAK1, BMP2K, BMX, BRAF, CAMK1D, CAMK1G, CAMKK1, CAMKK2B, CDC42BPA, CDK2, CDKL1, CHEK2, CLK1, CSNK1G1, CSNK1G3, CSNK2A1, DYRK1A, DYRK2A, EPHA2, GAK, GSG2, MAPK1, MAP2K7, MAPK14B, MAPK3, PHKG2, PIM1, PLK1, PKMYT1, PRPF4B, RPS6KA1A, RPS6KA5A, RPS6KA6A, SLK, SRPK1, SRPK2, STK3, STK6, STK10, STK17A, STK24, STK38L, TRIB2, TTK, VRK1 and VRK2. Proteins were produced in E. coli, purified in a Ni-chelate column, followed by overnight digestion using TEV protease (made in house with an N-terminal 6xHis tag) and dialysis to remove imidazole. To clear samples of uncleaved proteins and the TEV protease, samples were loaded on new Ni-chelate columns. The flow through was collected, concentrated and loaded to a HiLoad Superdex 200 16/600 column (GE Healthcare, Chicago, IL, USA) for final polishing and buffer exchange.
Starting from 100 µM protein stocks, our kinase panel enzymes were diluted to 1 µM in buffer 100 mM K2HPO4 pH 7.5 containing 150 mM NaCl, 10% glycerol and 5X dye (Applied Biosystems catalogue 4461806). The protein/dye mixture was transferred to a 384-well PCR microplate having 20 µL per well. Compounds in DMSO at 10 mM concentration were added in 20 nL volume, using a liquid handling device setup with a pin head, to make 10 µM compound concentration in the assay plate.
Protein thermal shift data was measured in a qPCR instrument (Applied Biosystems QuantStudio 6) programmed to equilibrate the plate at 25 °C for 5 min followed by ramping the temperature to 95 °C at a rate of 0.05 °C/s. Data was processed using Protein Thermal shift software (Applied Biosystems) by fitting experimental curves to a Boltzmann function to calculate differential thermal shifts (dTm) referenced to protein/dye in 0.2% DMSO.

SMILES | melting point | IC50 [1] | ΔTm at 10 µM (DYRK2A) | ΔTm at 10 µM (CSNK2A1; DSF, 10 μM compound) | ΔTm at 10 µM (CDKL1) | ΔTm at 10 µM (BRAFA) | ΔTm at 10 µM (CDC42BPA) | ΔTm at 10 µM (PHKG2A) | Kinases Hit DSF > 2 °C [2] | Number of Kinases Hit DSF > 2 °C [2] | ΔTm at 10 µM (CSNK2A1)
Cc1ccc(Nc2nsnc(Nc3ccc4c(c3)CS(=O)(=O)C4)c2=O)cc1O [Compound 3, 3-[(2,2-Dioxido-1,3-dihydrobenzo[c]thiophen-5-yl)amino]-5-[(3-hydroxy-4-methylphenyl)amino]-4H-1,2,6-thiadiazin-4-one] | > 300 °C | 34 µM | 0.7 °C | -0.6 °C | 0.9 °C | 0.7 °C | 2.3 °C | 1.6 °C | STK10, TRIB2, TTK; also recorded: CAMK1G/2B, CDC42BPA,; also recorded: CLK1, MAP2K7, PIM1, | 9 | 
CNC(=O)c1ccccc1Nc1nsnc(Nc2ccc(N3CCOCC3)cc2)c1=O [Compound 5, N-Methyl-2-({5-[(4-morpholinophenyl)amino]-4-oxo-4H-1,2,6-thiadiazin-3-yl}amino)benzamide] | 285 to 287 °C |  | 0.1 °C | -0.4 °C | 0.5 °C | 0.4 °C | -0.6 °C | 0.2 °C |  | 0 | 
CNC(=O)c1ccccc1Nc1nsnc(Nc2cccc(CS(C)(=O)=O)c2)c1=O [Compound 4, N-Methyl-2-([5-({3-[(methylsulfonyl)methyl]phenyl}amino)-4-oxo-4H-1,2,6-thiadiazin-3-yl]-amino}-benzamide] | > 300 °C |  | 0.1 °C | -0.4 °C | 0.5 °C | 0.1 °C | -0.8 °C | 0.2 °C |  | 0 | 
Cc1ccc(Nc2nsnc(Nc3cccc(C(N)=O)c3)c2=O)cc1O [Compound 1, 3-({5-[(3-Hydroxy-4-methylphenyl)amino]-4-oxo-4H-1,2,6-thiadiazin-3-yl}amino)benzamide] |  | > 50 µM | 0.1 °C | -0.9 °C | 1.2 °C | -0.1 °C | 0.3 °C | 0.7 °C | TRIB2 | 1 | 
Cc1ccc(Nc2nsnc(Nc3ccc(C(N)=O)cc3)c2=O)cc1O [Compound 2, 4-({5-[(3-Hydroxy-4-methylphenyl)amino]-4-oxo-4H-1,2,6-thiadiazin-3-yl}amino)benzamide] | > 300 °C | > 50 µM | 2.4 °C |  | 1 °C | 0.2 °C | 4.8 °C | 2.4 °C | CAMK1D/G/K1/K2B, CDC42BPA, CDK2; also recorded: CHEK2, DYRK2, MAP2K7, PHKG2; also recorded: PIM1, PKMYT1, RPSKA6, STK3, STK17, TTK | 16 | -0.2 °C
